Results on 1 compound are retold here after patent publication US9504700B2, “Methods and compositions for stimulation and enhancement of regeneration of tissues” (MOUNT DESERT ISLAND BIOLOGICAL LABORATORY, priority 2012, dated 2016).

Data set [1] has as its system caudal fin of adult zebrafish. Briefly: Caudal fin regeneration after amputation in adult zebrafish. In kind it is in vivo. The method, then: The purpose of this example was to evaluate the pharmacological effect of aminosterol MSI-1436 administration on the regeneration of the caudal or tail fins of zebrafish. Wildtype adult zebrafish were treated with MSI-1436 or squalamine or a control of phosphate buffered saline solution (PBS) over a four-day period via daily intraperitoneal microinjections. The adult zebrafish were bred and housed in the Yin laboratory at Mount Desert Island Biological Laboratory. The microinjections of PBS, squalamine and MSI-1436 were performed for the duration of the experiments at concentrations of 0.125 mg/kg which corresponds to 50 ng/300 mg body weight which translates to 5-200 mg per dose in humans. On average, a 5 ul volume of 10 ug/ml solution was delivered into each animal with a custom made 10 ul glass syringe (Hamilton part #80008).
The tail or caudal fins were amputated following the second day of intraperitoneal microinjections. These amputations were accomplished using a razor blade to remove approximately 50% of the caudal fins each in a manner perpendicular to the direction of bony ray growth. The zebrafish were maintained at standard conditions of 28° C. at all times during the experiments. At 4 days post-amputation (4 dpa) through 14 dpa, caudal fins were imaged with an Olympus MVX10 stereomicroscope and the length of regenerated tissue from the amputation plane was quantified using Adobe Photoshop.
(The dashed lines correspond to the amputation planes; the scale bar is 1 mm; * corresponds to the Student's ttest p-value <0.01; error bars correspond to SEM; n corresponds to 8-10 fish per group.) MSI-1436 stimulated appendage regeneration 2-fold four days after amputation (4 dpa), as shown in FIG. 2. […] In other words, the rate of regeneration was […] for those animals receiving MSI-1436 than for those receiving either phosphate buffered saline (PBS) or squalamine. Each of the experiments was conducted with at least 6 animals per group. […] FIG. 1 reflects the results of all four experiments.
Wildtype adult zebrafish were subjected to caudal fin amputation and treated daily with either control PBS or MSI-1436 as described above in the context of FIG. 1 for 14 consecutive days during regeneration. (Arrowhead=amputation plane; n=4-6 per group).

For data set [2], the system named is caudal fin blastema cells. Briefly: Proliferation of caudal fin blastema cells (H3P staining). It is filed as in vivo, zebrafish. The settings on record: 4 dpa, vs control. The source says:
The zebrafish caudal fins from the control and MSI-1436 treated animals were extracted at four days post-amputation (4 dpa) and stained with an antibody directed against phosphorylated histone 3 (H3P) as a marker of cell proliferation. […] (Arrowheads highlight subset of H3P positive cells; * corresponds to Student's ttest p-value <0.001; error bars correspond to SEM; n corresponds to 6 fish per group).

For another data set, the system named is HIV. The settings on record: tissue culture; cited from earlier work.
Data set [3] deals with Normal, green monkey kidney cells. Briefly: Cellular proliferation of normal green monkey kidney cells. It is filed as cell-based. Conditions: 0.1 μg/ml or 1.0 μg/ml, two weeks. The procedure:
This study was conducted to determine the effects of MSI-1436 on the cellular proliferation of normal, uninjured mammalian cells.
Normal, green monkey kidney cells were cultured with either control media of PBS or supplemented with 0.1 μg/ml or 1.0 μg/ml of MSI-1436. Growth media with and without MSI-1436 were replaced daily and total cell numbers were determined for each group over a period of 2-weeks.

The target of the next data set is T1, PTP1B (Homo sapiens, UniProt P18031).
T1 sequence (P18031 1-435): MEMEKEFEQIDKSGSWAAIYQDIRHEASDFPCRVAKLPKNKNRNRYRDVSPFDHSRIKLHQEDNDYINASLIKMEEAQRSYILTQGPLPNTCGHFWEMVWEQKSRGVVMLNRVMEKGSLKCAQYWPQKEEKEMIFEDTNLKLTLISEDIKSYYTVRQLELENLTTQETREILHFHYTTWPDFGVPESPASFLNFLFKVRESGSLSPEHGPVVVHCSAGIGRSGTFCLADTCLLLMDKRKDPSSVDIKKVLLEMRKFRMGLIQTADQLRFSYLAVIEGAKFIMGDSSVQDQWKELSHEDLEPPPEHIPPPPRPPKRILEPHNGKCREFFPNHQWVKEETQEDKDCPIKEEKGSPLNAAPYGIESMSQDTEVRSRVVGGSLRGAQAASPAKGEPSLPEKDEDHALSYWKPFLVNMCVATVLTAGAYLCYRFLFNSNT
The settings on record: in vitro enzyme assay; cited from earlier work.

The subject of data set [4] is zebrafish adult hearts. Briefly: Heart regeneration after partial ventricular resection (cardiomyocyte proliferation index, Mef2+PCNA+). It is filed as in vivo. The settings on record: 3 dpa; 0.125 mg/kg daily ip. The method, then: The pharmacological effect of aminosterol MSI-1436 administration on the regeneration of zebrafish adult hearts was tested using the same experimental paradigm described under the first study of example 1.
Adult zebrafish of 6-8 months old, were subjected to partial ventricular resection procedures followed by daily treatments with intraperitoneal microinjections of PBS (control) or squalamine or MSI-1436 at concentrations of 0.125 mg/kg. The ventricular resection procedures removed ˜20% of the ventricular apex of each heart and challenged each animal to regenerate new heart tissue. At three days post-amputation (3 dpa), hearts were extracted, fixed, cyrosectioned and stained with antibodies directed against Mef2 and PCNA. Cardiomyocyte proliferation indices were determined for each group by representing Mef2+PCNA+cells as a percent of total Mef2+cells within each heart. (*=Student's ttest p-value <0.05; error bars=SEM; n=4 per group).

The subject of data set [5] is zebrafish adult hearts. Briefly: Rescue of let-7 miRNA depletion defect in heart regeneration (cardiomyocyte proliferation index). The settings on record: 3 dpa. It is filed as in vivo. The source says:
To determine if MSI-1436 is capable of rescuing defects in heart regeneration, we microinjected antisense oligonucleotides to bind and remove activity of the let-7 family of small RNAs (miRNAs). Wildtype adult zebrafish were injured via the partial ventricular resection procedure described above and treated with either 1) control of PBS, 2) MSI-1436, 3) miRNA depletion, and 4) miRNA depletion and MSI-1436. At three days post-amputation (3 dpa), hearts were extracted and stained to detect Mef2+PCNA+cells. Cardiomyocyte proliferation indices were determined as a percent of Mef2+PCNA+cells within the total cardiomyocyte population in each heart. (*=Student's ttest p-value <0.05; error bars=SEM; n=8-12 hearts per group) The inclusion of MSI-1436 enhanced cardiomyocyte proliferation indices by 2-fold when compared to control hearts. Depletion of the let-7 family of miRNAs with antisense nucleotides inhibited cardiomyocyte proliferation index by approximately 45%.

For the next data set, the system named is insulin receptor. The settings on record: mouse, with administration of insulin; cited from earlier work.
The subject of the next data set is hepatoma cells. The settings on record: cited from earlier work.

Molecules are shown by their SMILES.

Take `CC(C)[C@@H](CC[C@@H](C)[C@H]1CC[C@H]2[C@@H]3[C@H](O)C[C@H]4C[C@@H](NCCCNCCCCNCCCN)CC[C@]4(C)[C@H]3CC[C@]12C)OS(=O)(=O)O` [MSI-1436]: in [1] (0.125 mg/kg daily ip), the “anatomy of restored tail” value is reported as “anatomically normal” and the “rate of regeneration greater than PBS or squalamine” value is on record as 200%. Moreover, in [1] (14 consecutive days of daily microinjections), the “overgrowth of regenerated tissue” value is “did not display any overgrowth”. The “amount of regenerated tissue vs control” value in [1] (14 days post-amputation (14 dpa)) is “same amount of regenerated tissue”. Moreover, the “stimulation of appendage regeneration” value in data set [1] (four days after amputation (4 dpa), 0.125 mg/kg daily ip) turned out to be 2 fold. In addition, the “increase in cellular proliferation of blastema cells (H3P positive)” value in data set [2] was found to be 2 fold. For the same compound, the “antiviral activity against HIV” value with HIV is listed as “exhibits antiviral activity against HIV”. In data set [3] (media replaced daily), the cellular proliferation plots entry is reported as “normal growth curves”. The overgrowth or hyperproliferation result in data set [3] is on record as “did not promote overgrowth or hyperproliferation”. Besides, the PTP1B activity entry on PTP1B was “inhibit the activity of PTP1B”. In addition, the “greater rate of heart regeneration, as quantified by cardiomyocyte proliferation indices, vs PBS or squalamine” value in the data set with zebrafish adult hearts [4] is 2-3 fold. For the same compound, the “enhancement of cardiomyocyte proliferation indices vs control hearts” value in the data set on zebrafish adult hearts [5] was 2 fold. Besides, the “cardiomyocyte proliferation index in animals with miRNA depletion” value with zebrafish adult hearts [5] (miRNA depletion and MSI-1436) is given as “restored to wildtype control levels”. Moreover, the “recovery of phosphorylated insulin receptor from the hypothalamus” value in the data set with insulin receptor is on record as “increase in the recovery of phosphorylated insulin receptor from the hypothalamus”. In the data set on hepatoma cells, the “phosphorylation of the insulin receptor” value was “increase the level of phosphorylation of the insulin receptor”.
